From patent US9308215B2, “Avermectins and milbemycins as anti-mycobacterial agents” (priority 2013, dated 2016)
In brackets after ≈: the same amount, converted by molar mass. Read-outs that look alike come from different tables or passages of the source.

How the values were obtained:
M. tuberculosis = test: microbe, parasite or virus in culture; assay type: cell-based, Mycobacterium tuberculosis; details: for MIC90: Mycobacterium tuberculosis
[1] = system: representative Gram-positive and Gram-negative bacteria; assay type: cell-based
M. avium = test: MIC against mycobacterial species; assay type: cell-based, Mycobacterium avium; details: Mycobacterium avium
[2] = 12 mg/kg oral, cited from earlier work
E. coli = test: microbe, parasite or virus in culture; assay type: cell-based, Escherichia coli; details: Escherichia coli, read-out: In vitro MIC90
M. bovis BCG = test: microbe, parasite or virus in culture; assay type: cell-based, Mycobacterium bovis; details: Mycobacterium tuberculosis variant bovis BCG, BCG, read-out: In vitro MIC90
[3] = cited from earlier work
[4] = cited from earlier work; remark: listed apart in the source
M. aurum = test: MIC against mycobacterial species; assay type: cell-based; details: Mycolicibacterium aurum
[5] = cited from earlier work; remark: listed apart in the source
P. aeruginosa = test: microbe, parasite or virus in culture; assay type: cell-based, Pseudomonas aeruginosa; details: Pseudomonas aeruginosa, read-out: In vitro MIC90
M. gordonae = test: MIC against mycobacterial species; assay type: cell-based; details: Mycobacterium gordonae
R. jostii = test: microbe, parasite or virus in culture; assay type: cell-based, Rhodococcus jostii; details: Rhodococcus jostii, read-out: In vitro MIC90
[6] = system: M. tuberculosis H37Rv and mc25857 (an MDR isolate); assay type: cell-based, Mycobacterium tuberculosis
M. phlei = test: MIC against mycobacterial species; assay type: cell-based; details: Mycolicibacterium phlei
[7] = cats; cited from earlier work
[8] = Cats, cited from earlier work
[9] = rats; cited from earlier work
S. aureus = test: microbe, parasite or virus in culture; assay type: cell-based, Staphylococcus aureus; details: Staphylococcus aureus, ATCC25923, read-out: In vitro MIC90
M. smegmatis = test: microbe, parasite or virus in culture; assay type: cell-based, Mycobacterium smegmatis; details: Mycolicibacterium smegmatis, MC^2155, read-out: In vitro MIC90
K. rhizophila = test: microbe, parasite or virus in culture; assay type: cell-based, Kocuria rhizophila; details: Kocuria rhizophila, read-out: In vitro MIC90
A. baumannii = test: microbe, parasite or virus in culture; assay type: cell-based, Acinetobacter baumannii; details: Acinetobacter baumannii, ATCC1960, read-out: In vitro MIC90
S. lividans = test: microbe, parasite or virus in culture; assay type: cell-based, Streptomyces lividans; details: Streptomyces lividans, read-out: In vitro MIC90
M. chelonae = test: MIC against mycobacterial species; assay type: cell-based; details: Mycobacteroides chelonae
M. intracellulare = test: MIC against mycobacterial species; assay type: cell-based; details: Mycobacterium intracellulare
[10] = Rats, 10 mg/kg oral; cited from earlier work

For `CO[C@H]1C[C@H](O[C@@H]2/C(C)=C/C[C@@H]3C[C@@H](C[C@]4(CC[C@H](C)[C@@H](C5CCCCC5)O4)O3)OC(=O)[C@@H]3C=C(C)/C(=N/O)[C@H]4OC/C(=C\C=C\[C@@H]2C)[C@]43O)O[C@@H](C)[C@@H]1O` [Selamectin], the “activity in dose response curves compared to ivermectin and doramectin” value (M. tuberculosis; M. tuberculosis H37Rv and an MDR clinical isolate (FIG. 10)) was “increased activity”, the “activity in dose response curves” value (M. tuberculosis; MDR clinical isolates BC-MDR2, BC-MDR3, BC-MDR4 and BC-MDR5 (FIG. 11)) was “consistently more active than ivermectin” and the MIC90 (M. tuberculosis; ERDMAN, read-out: In vitro MIC90, strain Erdman, WT) was 2 µg/mL (≈ 2.6 µM). It also gave an MIC90 (M. tuberculosis; read-out: In vitro MIC90, strain 1254, WT) of 2 to 4 µg/mL (≈ 2.6 to 5.19 µM), an MIC90 (M. tuberculosis; read-out: In vitro MIC90, strain BC-DS1 (drug-susceptible)) of 2 µg/mL (≈ 2.6 µM) and an MIC90 (M. tuberculosis; read-out: In vitro MIC90, strain BC-DS3 (drug-susceptible)) of 1 to 2 µg/mL (≈ 1.3 to 2.6 µM). The MIC90 (M. tuberculosis; read-out: In vitro MIC90, strain BC-DS4 (drug-susceptible)) was 1 to 2 µg/mL (≈ 1.3 to 2.6 µM), the MIC90 (M. tuberculosis; read-out: In vitro MIC90, strain BC-DS5 (drug-susceptible)) was 2 to 4 µg/mL (≈ 2.6 to 5.19 µM) and the MIC90 (M. tuberculosis; read-out: In vitro MIC90, strain CDC 1551, WT) was 1 µg/mL (≈ 1.3 µM). The “sensitivity of the ivermectin-less-sensitive strains” value (M. tuberculosis; strains CI15072, CI12081, BC-MDR2, BC-DS4 and BC-DS5) was “unaffected”, the Inhibitory effects [1] was “not observed” and the MIC (M. avium; ATCC25291, M. avium ATCC 25291) was 16 µg/mL (≈ 20.8 µM). For the same compound, the MIC (M. avium; M. avium 702) was 64 µg/mL (≈ 83.1 µM), the MIC (M. avium; M. avium 715) was 128 µg/mL (≈ 166 µM) and the Cmax ([2]; Mouse (lung)) was 7500 ng/mL. The AUC ([2]; Mouse (plasma)) was 62.2857 µg·h/mL, the Cmax ([2]; Mouse (plasma)) was 3714 ng/mL and the MIC90 (E. coli) was over 256 µg/mL. For the same compound, the MIC90 (M. bovis BCG) was 4 µg/mL (≈ 5.19 µM), the LD50 ([3]; mice) was > 1,600 mg/kg body weight and the dose well tolerated ([3]; mouse, in vivo) was “up to 300 mg/kg body weight”. The “oral dose found safe” value ([4]; 3-month repeated dose toxicity study in dogs) was 40 mg/kg/day, the “doses reported to be safe” value ([4]; dogs) was “up to 24 mg/kg” and the “toxicity in dogs lacking MDR1 P-glycoprotein / homozygous MDR1 mutation” value ([4]; ivermectin: extra-label use, selamectin, moxidectin: therapeutic doses) was “without any signs of toxicosis”. The MIC (M. aurum) was 1 µg/mL (≈ 1.3 µM), the “safe dose extrapolated to a 70 kg adult” value (from 24 mg/kg in cats and dogs) was 1,680 mg and the “safe dose extrapolated to humans” value (from 40 mg/kg/day in dogs) was 2,800 mg/day. The AUC ([5]; Dogs female, 6 mg/kg (topical)) was 8.903 µg·h/mL, the Cmax ([5]; Dogs female, 6 mg/kg (topical)) was 22.65 ng/mL and the T½ ([5]; Dogs female, 6 mg/kg (topical)) was 257.5 h. For the same compound, the AUC ([5]; Dogs males, 6 mg/kg (topical)) was 4.609 µg·h/mL, the Cmax ([5]; Dogs males, 6 mg/kg (topical)) was 12.72 ng/mL and the T½ ([5]; Dogs males, 6 mg/kg (topical)) was 291.4 h. The AUC ([5]; Dogs, 24 mg/kg (topical)) was 15.229 µg·h/mL, the Cmax ([5]; Dogs, 24 mg/kg (topical)) was 86.5 ng/mL and the AUC ([5]; Dogs, 24 mg/kg oral) was 227.901 µg·h/mL. For the same compound, the Cmax ([5]; Dogs, 24 mg/kg oral) was 7630 ng/mL, the T½ ([5]; Dogs, 24 mg/kg oral) was 45.7 h and the MIC90 (P. aeruginosa) was over 256 µg/mL. For the same compound, the MIC (M. gordonae) was under 0.25 µg/mL, the MIC90 (R. jostii) was over 256 µg/mL and the bactericidal profile ([6]; 21-day kill curves, various concentrations, H37Rv) was “strongest bactericidal profile”. For the same compound, the bactericidal or bacteriostatic ([6]; in vitro against M. tuberculosis, survival kinetics) was “Bactericidal”, the MIC (M. phlei) was 4 µg/mL (≈ 5.19 µM) and the “doses reported to be safe” value [7] was “up to 24 mg/kg”. For the same compound, the AUC ([8]; 24 mg/kg (topical)) was 743.349 µg·h/mL, the Cmax ([8]; 24 mg/kg (topical)) was 5513 ng/mL and the AUC ([8]; 24 mg/kg oral) was 1109.933 µg·h/mL. The Cmax ([8]; 24 mg/kg oral) was 11929 ng/mL, the LD50 [9] was > 1,600 mg/kg body weight and the MIC90 (S. aureus) was over 256 µg/mL. It also gave an MIC90 (M. smegmatis) of 4 µg/mL (≈ 5.19 µM), an MIC90 (K. rhizophila) of over 256 µg/mL and an MIC90 (A. baumannii) of over 256 µg/mL. For the same compound, the MIC90 (S. lividans) was over 256 µg/mL, the MIC (M. chelonae) was 2 µg/mL (≈ 2.6 µM) and the MIC (M. intracellulare; ATCC35761, M. intracellulare 1403 ATCC35761) was 1 µg/mL (≈ 1.3 µM). For the same compound, the MIC (M. intracellulare; M. intracellulare D673) was 2 µg/mL (≈ 2.6 µM), the MIC (M. intracellulare; M. intracellulare FM) was 2 µg/mL (≈ 2.6 µM) and the MIC (M. intracellulare; M. intracellulare 1403 Trudeau) was 1 µg/mL (≈ 1.3 µM). The Cmax [10] was over 1000 ng/mL and the T½ [10] was 10.3 h.
